Reference: US9289400B2, “D3 dopamine receptor agonists to treat dyskinesia in parkinson's disease” (priority 2010, dated 2016)
“Also recorded” adds a separate entry of the source. Read-outs that look alike come from different tables or passages of the source.

Legend:
monoamine transporter = assay: Monoamine transporter uptake activity; type: cell-based; details: FIG. 23
c-fos expression = details: in vivo; cited from earlier work
Balb/c mice = assay: Locomotor activity (open field, TruScan) in Balb/c mice
Protocol: Therefore, three different doses of the lead compound are administered and their effects on locomotor activity are determined. The dosage is determined based on the functional EC50 values and binding affinity of the lead compound from the cell-based assays described above. The compound is administered to Balb/c mice and locomotor activity is monitored using the TruScan Automated Behavioral Monitoring system (Coulborn Instruments).
A total of 12 young adult, male Balb/c mice were obtained form Charles River, Inc. (Wilmington, Mass.), and housed in groups of four in standard cages. The animals were maintained on a 12 hour light/12 hour dark cycle and permitted ad lib access to food and water. Experiments were conducted during the animal's light phase. […] For PD128907, separate groups of Balb/c mice received subcutaneous injections of saline (n=4) or 0.05 or 0.4 mg/kg PD128907 (n=4, for each). Locomotion (‘distance traveled’) scores of drug-injected animals were collapsed across 10-min intervals and for comparison purposes were normalized to saline injected animals (FIG. 12A). The experiment was conducted on three separate occasions.

D3 dopamine receptor [1] = target: T1, D3 dopamine receptor (Homo sapiens (Human), UniProt P35462); assay: Current clamp recording of spontaneous action potentials in AtT-20 cells expressing D3; type: cell-based; details: 100 nM dopamine or 300 nM PBZI
Target sequence in this assay (P35462 other isoform, or with tags, fused parts or gaps): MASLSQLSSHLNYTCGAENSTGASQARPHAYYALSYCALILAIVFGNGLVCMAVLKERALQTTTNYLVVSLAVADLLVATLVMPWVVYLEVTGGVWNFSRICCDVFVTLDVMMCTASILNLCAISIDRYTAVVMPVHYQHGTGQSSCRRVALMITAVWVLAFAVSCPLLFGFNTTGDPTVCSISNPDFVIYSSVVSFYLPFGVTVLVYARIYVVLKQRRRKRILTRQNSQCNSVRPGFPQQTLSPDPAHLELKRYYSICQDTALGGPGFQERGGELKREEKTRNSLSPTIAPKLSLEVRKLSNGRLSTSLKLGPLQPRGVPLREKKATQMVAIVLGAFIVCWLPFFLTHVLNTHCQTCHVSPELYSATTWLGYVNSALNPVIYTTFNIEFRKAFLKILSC
Description: Drug solutions were delivered to cells via a multi-barreled micropipette array. The current responses were normalized to the cell capacitance, to account for variation in cell size.

Water solubility = type: physicochemical
D1-like receptors = details: cited from earlier work
D4.2 = details: Scheideler et al., 1997; cited from earlier work
D3 dopamine receptor [2] = target: T1, D3 dopamine receptor; assay: D3 receptor tolerance and SRT: GIRK response to repeated agonist application in AtT-20 cells; type: cell-based; details: 1000 nM PBZI applied simultaneously with 100 nM dopamine
Target sequence in this assay (P35462 other isoform, or with tags, fused parts or gaps): as above

D3 dopamine receptor [3] = target: T1, D3 dopamine receptor; details: cited from earlier work
Target sequence in this assay (P35462 whole entry): as the sequence (P35462 other isoform, or with tags, fused parts or gaps) above, with S9G counted along it

## CC(N)CCc1ccccc1Cl (stereo not shown) [ES609]
Monoamine transporter
  monoamine transporter uptake activity: inhibits monoamine transporter uptake activity

## CCCN1CC[C@@H]2c3cc(O)ccc3CC[C@@H]21 [PBZI, (3aS,9bR)-3-propyl-1,2,3a,4,5,9b-hexahydrobenzo[e]indol-8-ol]
c-fos expression
  c-fos expression in medial prefrontal cortex and shell region of nucleus accumbens: specific increases in c-fos expression
Balb/c mice; 1 mg/kg sc
  effect on locomotion: no significant effect
Balb/c mice; 10 mg/kg sc, within 20-min
  reduction of locomotion: approximately 90%
Balb/c mice; PBZI 10 mg/kg sc, PD128907 0.4 mg/kg sc
  duration of hypoactivity post-injection: 40 min
Balb/c mice; sc, PBZI 10 mg/kg, PD128907 0.05-0.4 mg/kg, normalized to saline
  locomotor response: only elicit hypoactivity; also recorded: monophasic hypoactive locomotor response; also recorded: dose-dependent and monophasic inhibition of locomotion
D3 dopamine receptor [1]
  inhibition of spontaneous action potentials on repeated application: inhibited spontaneous action potentials during the first application and subsequent applications; also recorded: inhibited the spontaneous action potentials during the first and second treatment
Water solubility
  water solubility: water soluble
D1-like receptors
  Binding at D1-like receptors and a panel of other neurotransmitter receptors, ion channels and transporters: negligible
D4.2
  Ki: 280 nM
D3 dopamine receptor [2]
  competition with dopamine to block development of tolerance and SRT: able to compete effectively with dopamine; also recorded: blocked the development of tolerance and SRT
D3 dopamine receptor [3]; D3, Scheideler et al., 1997, read-out: Ki
  Ki: 27 nM
D3 dopamine receptor [3]; source not stated, read-out: D3 dopamine receptor binding affinity Ki
  Ki: 22 nM
